Tested on: HPAC cells
Experiment: HPAC TGI 73 pancreatic cancer xenograft, tumor volumes
Format: in vivo, nude/nude mice
Conditions: for Average Tumor Volumes: 50 mg/kg PO daily
Procedure: Immunocompromised nude/nude mice are inoculated in the right hind flank with cells harboring a KRas G12D mutation. When tumor volumes reach between 200-400 mm^3 in size, the mice are divided into four to five groups of 5 mice each. The first group is administered vehicle only. […] The fourth or last groups are administered the single agent dose of the KRas G12D inhibitor using the twice daily schedule and/or the 2 sequential days followed by 5 days off schedule in combination with the single agent dose of one of the EGFR inhibitors. The treatment period varies from cell line to cell line but typically is between 15-40 days. Tumor volumes are measured using a caliper every two-three days and tumor volumes are calculated by the formula: […].
Experimental Procedures. 20 nude/nude mice were inoculated with HPAC cells in the right hind flank. When the tumors reached ˜200 mm^3 four treatment groups were established with five mice per group.

Structure (SMILES): C#Cc1cccc(Nc2ncnc3cc(OCCOC)c(OCCOC)cc23)c1 [Erlotinib, [6,7-Bis-(2-methoxy-ethoxy)-quinazolin-4-yl]-(3-ethynyl-phenyl)-amine, reference compound]
- Average Tumor Volumes (Study Day 0): 197.582 mm^3
- Average Tumor Volumes (Study Day 3): 320.132 mm^3
- Average Tumor Volumes (Study Day 7): 421.908 mm^3
- Average Tumor Volumes (Study Day 10): 587.79 mm^3
- Average Tumor Volumes (Study Day 14): 705.688 mm^3
- Average Tumor Volumes (Study Day 17): 856.214 mm^3
- Average Tumor Volumes (Study Day 21): 945.702 mm^3
- tumor growth inhibition (50 mg/kg daily, single agent, Day 21): 35%
